The source made the active and inactive calls. No cut-off for these calls is given here.
Legend:
[1] = Intrinsic clearance in human liver microsomes assessed as per mg of protein at 10 uM; type: ADME, Microsome; settings: read-out: CLH
[2] = Displacement of [3H]di-o-tolylguanidine from sigma 2 receptor in guinea pig brain membranes after 120 mins by scintillation counter; type: cell membranes, Cavia porcellus, Membrane
[3] = biological target: Sigma non-opioid intracellular receptor 1 (Homo sapiens, UniProt Q99720); test: biochemical
Description: Displacement of [3H](+)pentazocine from human sigma 1 receptor transfected in HEK293 cell membranes after 120 mins by scintillation counter

[4] = biological target: Voltage-gated inwardly rectifying potassium channel KCNH2 (Homo sapiens, UniProt Q12809)
Description: Inhibition of human ERG transfected in HEK293 cell membranes by whole cell patch clamp assay

Mus musculus [5] = test: Analgesic activity in CD1 mouse assessed as inhibition of capsaicin-induced mechanical hypersensitivity at 16 mg/kg, ip administered 15 mins prior to capsaicin challenge measured 30 mins post capsaicin challenge; type: functional; settings: route intraperitoneal
Mus musculus [6] = test: Antihyperalgesic activity in CD1 mouse partial sciatic nerve ligation model assessed as inhibition of thermal hyperalgesia at 16 to 64 mg/kg, ip administered 45 mins by plantar test; type: functional, organism-based
Mus musculus [7] = test: Neurotoxicity in CD1 mouse assessed as motor impairment at 32 to 64 mg/kg, ip measured after 30 to 180 mins by rotarod test; type: toxicity, organism-based; set-up: route intraperitoneal; settings: in vivo
Mus musculus [8] = test: Antiallodynic activity in CD1 mouse partial sciatic nerve ligation model assessed as inhibition of mechanical allodynia at 16 to 64 mg/kg, ip administered 30 mins by von Frey test; type: functional, organism-based
Mus musculus [9] = test: Inhibition of capsaicin-induced mechanical hypersensitivity in CD1 mouse assessed as paw withdrawal latency at 32 mg/kg, ip administered 15 mins prior to capsaicin challenge measured 30 mins post capsaicin challenge; type: functional; settings: route intraperitoneal

Chain of Voltage-gated inwardly rectifying potassium channel KCNH2 (Q12809 whole entry): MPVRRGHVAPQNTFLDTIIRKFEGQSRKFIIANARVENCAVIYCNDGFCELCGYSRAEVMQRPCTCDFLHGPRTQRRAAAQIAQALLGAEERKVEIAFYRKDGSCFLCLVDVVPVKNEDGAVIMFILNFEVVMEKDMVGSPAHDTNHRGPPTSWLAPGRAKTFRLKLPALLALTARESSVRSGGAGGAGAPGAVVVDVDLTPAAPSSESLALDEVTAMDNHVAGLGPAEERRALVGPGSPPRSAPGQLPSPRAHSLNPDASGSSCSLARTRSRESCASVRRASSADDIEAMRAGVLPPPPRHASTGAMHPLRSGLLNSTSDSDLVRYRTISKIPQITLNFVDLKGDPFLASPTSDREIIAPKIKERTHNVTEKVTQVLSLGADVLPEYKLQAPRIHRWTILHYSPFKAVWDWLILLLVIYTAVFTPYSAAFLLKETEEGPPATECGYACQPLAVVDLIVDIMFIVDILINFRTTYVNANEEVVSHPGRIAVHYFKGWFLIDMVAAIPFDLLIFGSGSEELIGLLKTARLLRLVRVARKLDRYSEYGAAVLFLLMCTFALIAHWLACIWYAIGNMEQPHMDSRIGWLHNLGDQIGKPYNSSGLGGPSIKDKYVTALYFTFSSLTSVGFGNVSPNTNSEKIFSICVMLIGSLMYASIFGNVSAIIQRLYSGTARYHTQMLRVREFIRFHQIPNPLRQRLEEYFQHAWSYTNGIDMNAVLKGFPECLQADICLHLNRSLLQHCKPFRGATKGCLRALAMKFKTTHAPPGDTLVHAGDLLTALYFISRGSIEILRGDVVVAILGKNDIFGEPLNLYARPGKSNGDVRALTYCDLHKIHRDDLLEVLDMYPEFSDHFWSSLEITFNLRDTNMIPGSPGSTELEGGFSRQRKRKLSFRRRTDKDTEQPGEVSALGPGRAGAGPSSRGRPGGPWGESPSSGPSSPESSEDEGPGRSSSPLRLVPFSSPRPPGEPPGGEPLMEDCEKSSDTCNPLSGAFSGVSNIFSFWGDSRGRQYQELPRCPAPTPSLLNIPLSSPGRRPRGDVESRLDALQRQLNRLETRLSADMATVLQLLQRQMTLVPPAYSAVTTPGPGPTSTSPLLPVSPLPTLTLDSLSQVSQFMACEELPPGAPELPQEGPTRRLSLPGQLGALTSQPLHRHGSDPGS
Chain of Sigma non-opioid intracellular receptor 1 (Q99720 whole entry): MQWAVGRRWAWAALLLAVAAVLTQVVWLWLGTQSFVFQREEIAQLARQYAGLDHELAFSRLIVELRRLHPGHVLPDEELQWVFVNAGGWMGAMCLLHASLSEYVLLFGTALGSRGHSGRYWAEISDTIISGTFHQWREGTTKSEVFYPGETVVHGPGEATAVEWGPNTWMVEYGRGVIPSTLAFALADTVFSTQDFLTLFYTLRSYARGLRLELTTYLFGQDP

Compound	Ki [2]	Ki [3]	also measured
Cc1cc(SCCN2CCOCC2)nn1-c1ccc(Cl)c(Cl)c1	> 1000 nM	14.2 nM	microsomal CLint at 10 µM [1]: 37 µL/min/mg; IC50 [4]: > 10000 nM
Cc1cc(OCCCN2CCOCC2)nn1-c1ccc(Cl)c(Cl)c1	638 nM	18.9 nM	
Cc1cc(OCCNC2CCCCC2)nn1-c1ccc(Cl)c(Cl)c1	8.8 nM	8.5 nM	
Clc1ccc(-n2ccc(OCCCCN3CCOCC3)n2)cc1Cl	829 nM	17.6 nM	
Cc1cc(OCCCCN2CCC(c3ccccc3)CC2)nn1-c1ccc(Cl)c(Cl)c1	26.7 nM	26 nM	
Cc1cc(OCCn2ccnc2)nn1-c1ccc(Cl)c(Cl)c1	> 1000 nM	294 nM	
Cc1cc(OCCN2CCC(n3cnc4cccnc43)CC2)nn1-c1ccc(Cl)c(Cl)c1	435 nM	16 nM	
Clc1ccc(-n2nc(OCCN3CCOCC3)cc2-c2ccccc2)cc1Cl	> 1000 nM	224 nM	
Clc1ccc(-n2ccc(OCCOCCN3CCCCC3)n2)cc1Cl	14.2 nM	36.8 nM	
Cc1cc(OCCCCN2CCN(C)CC2)nn1-c1ccc(Cl)c(Cl)c1	102 nM	9.9 nM	
Clc1ccc(-n2ccc(OCCN3CCCCCC3)n2)cc1Cl		8.9 nM	
Cc1cc(OCCCCN2CCOCC2)nn1-c1ccc(Cl)c(Cl)c1	245 nM	13.3 nM	
Cc1cc(OCCN2CCCCCC2)nn1-c1ccc(Cl)c(Cl)c1	63.5 nM	9.4 nM	
CC(=O)N1CCN(CCOc2cc(C)n(-c3ccc4ccccc4c3)n2)CC1	> 1000 nM	83.4 nM	
Clc1ccc(-n2ccc(OCCCN3CCOCC3)n2)cc1Cl	394 nM	16.1 nM	
Cc1cc(OCCN2CCOCC2)nn1-c1ccc(Cl)c(Cl)c1	> 1000 nM		microsomal CLint at 10 µM [1]: 12 µL/min/mg; inhibition in vivo at 16 mg/kg (Mus musculus [5]): 25%
Cc1cc(OCCN2CCOCC2)n(-c2ccc3ccccc3c2)n1	> 1000 nM	> 1000 nM	
Clc1ccc(-n2ccc(OCCCCN3CCSCC3)n2)cc1Cl	344 nM	10.2 nM	
Cc1cc(OCCCCn2ccnc2)nn1-c1ccc(Cl)c(Cl)c1	> 1000 nM	854 nM	
Clc1ccc(-n2ccc(OCCN3CCCC3)n2)cc1Cl	23.7 nM	15.7 nM	
Cc1cc(OCCN2CCC(C)CC2)nn1-c1ccc(Cl)c(Cl)c1	161 nM	8.4 nM	
CN1CCN(CCCOc2ccn(-c3ccc(Cl)c(Cl)c3)n2)CC1	307 nM	16.5 nM	
CC(=O)c1c(OCCN2CCOCC2)nn(-c2ccc(Cl)c(Cl)c2)c1C	> 1000 nM	741 nM	
Cc1c(OCCN2CCOCC2)nn(-c2ccc(Cl)c(Cl)c2)c1C	351 nM	9.4 nM	

Compound	Ki [2]	Ki [3]	also measured
Cc1cc(OCCCN2CCCC2)nn1-c1ccc(Cl)c(Cl)c1	62 nM	10.4 nM	
Clc1ccc(-n2ccc(NCCN3CCOCC3)n2)cc1Cl	562 nM	39.4 nM	
CN(CCCCOc1ccn(-c2ccc(Cl)c(Cl)c2)n1)Cc1ccccc1	46.3 nM	24 nM	
Cc1cc(OCCCCN2CCOCC2)nn1-c1ccc2ccccc2c1	428 nM	99.1 nM	
CCN(CC)CCOc1cc(C)n(-c2ccc3ccccc3c2)n1	589 nM	47 nM	
O=C(CCCN1CCC(O)(c2ccc(Cl)cc2)CC1)c1ccc(F)cc1 [HALOPERIDOL]	22 nM		
CC(C)(C)n1ccc(OCCN2CCOCC2)n1	> 1000 nM	> 1000 nM	
Cc1cc(OCCN2CCOCC2)nn1-c1cccc(Cl)c1	> 1000 nM	180 nM	
Cc1cc(OCCN2CCCCC2)nn1-c1ccc2ccccc2c1	84.7 nM	10 nM	
OC(COc1ccn(-c2ccc(Cl)c(Cl)c2)n1)CN1CCOCC1 (stereo unspecified)	> 1000 nM	128 nM	
Clc1ccc(-n2ccc(OCCN3CCCCC3)n2)cc1Cl	64.7 nM	16.7 nM	
Cc1cc(OCCN2CCCCC2)nn1-c1ccc(Cl)c(Cl)c1	209 nM	5.5 nM	
c1cn(C2CCCCC2)nc1OCCN1CCOCC1	> 1000 nM	23.1 nM	inhibition in vivo at 16 mg/kg (Mus musculus [5]): 20%; IC50 [4]: > 10000 nM
Cc1cc(OCCCCn2ccc3c2CCCC3=O)nn1-c1ccc(Cl)c(Cl)c1	> 1000 nM	> 1000 nM	
CN1CCN(CC(O)COc2ccn(-c3ccc(Cl)c(Cl)c3)n2)CC1 (stereo unspecified)	> 1000 nM	233 nM	
C[C@@H]1CN(CCCCOc2ccn(-c3ccc(Cl)c(Cl)c3)n2)C[C@H](C)O1	153 nM	14.8 nM	
O=C(CN1CCCCC1)Nc1ccn(-c2ccc(Cl)c(Cl)c2)n1	> 1000 nM	80.8 nM	
Clc1ccc(-n2ccc(OCCN3CCOCC3)n2)cc1	357 nM	17.8 nM	
CC(C)C[C@H](CN)CC(=O)O [PREGABALIN]			inhibition (Mus musculus [6]): Active; Activity (Mus musculus [7]): Toxic; inhibition (Mus musculus [8]): Active
Cc1cc(OCCN2CCCC2)nn1-c1ccc(Cl)c(Cl)c1	483 nM	5.2 nM	
O=S(=O)(CCN1CCOCC1)OCCOc1ccn(-c2ccc(Cl)c(Cl)c2)n1	> 1000 nM	879 nM	
Clc1ccc(-n2ccc(OCCCN3CCCCC3)n2)cc1Cl	37.2 nM	9.6 nM	
CCN(CC)CCCCOc1ccn(-c2ccc(Cl)c(Cl)c2)n1	104 nM	17.2 nM	
CC(=O)C1CCN(CCOc2ccn(-c3ccc(Cl)c(Cl)c3)n2)CC1	> 1000 nM	7.2 nM	microsomal CLint at 10 µM [1]: 7 µL/min/mg; inhibition in vivo at 16 mg/kg (Mus musculus [5]): 73%; IC50 [4]: 4500 nM

Compound	Ki [2]	Ki [3]	also measured
CCN(CC)CCOc1cc(C)n(-c2ccc(Cl)c(Cl)c2)n1	250 nM	9.9 nM	
Cc1cc(OCCCN2CCN(C)CC2)nn1-c1ccc(Cl)c(Cl)c1	170 nM	13.3 nM	
Clc1ccc(-n2ccc(NCCN3CCCCC3)n2)cc1Cl	90.5 nM	9.5 nM	
CN1CCN(CCc2ccc(Cl)c(Cl)c2)CC1	318 nM	6.3 nM	
Cc1cc(OCCN2CCCC2)nn1-c1ccc2ccccc2c1	395 nM	9.9 nM	
Cc1cc(OCCN2C[C@@H](C)O[C@@H](C)C2)nn1-c1ccc2ccccc2c1	> 1000 nM	33.8 nM	microsomal CLint at 10 µM [1]: 25 µL/min/mg; IC50 [4]: 7400 nM
CCN(CC)CCCCOc1cc(C)n(-c2ccc(Cl)c(Cl)c2)n1	45.5 nM	11.7 nM	
Clc1ccc(-n2ccc(OCCN3CCOCC3)n2)cc1Cl	280 nM	8.2 nM	
CCOC(=O)N1CCN(CCOc2cc(C)n(-c3ccc(Cl)c(Cl)c3)n2)CC1	> 1000 nM	44 nM	microsomal CLint at 10 µM [1]: 26 µL/min/mg
COc1ccc(-n2nc(OCCN3CCOCC3)cc2C)cc1	> 1000 nM	> 1000 nM	
COCCN(C)CCCCOc1ccn(-c2ccc(Cl)c(Cl)c2)n1	66.3 nM	8.2 nM	
Cc1cc(OCCN2CCN(c3ccccc3)CC2)nn1-c1ccc(Cl)c(Cl)c1	563 nM	14.8 nM	
Cc1c(OCCN2CCOCC2)nn(-c2ccc3ccccc3c2)c1C	> 1000 nM	139 nM	
CC(=O)N1CCN(CCCCOc2cc(C)n(-c3ccc4ccccc4c3)n2)CC1	324 nM	296 nM	
Cc1cc(OCCCCN2CCCCC2)nn1-c1ccc(Cl)c(Cl)c1	47.5 nM	7.1 nM	
Cc1cc(OCCCCN2CCCC2)nn1-c1ccc(Cl)c(Cl)c1	12.6 nM	6.9 nM	
Cc1cc(OCCN2CCOCC2=O)nn1-c1ccc2ccccc2c1	> 1000 nM	> 1000 nM	
c1ccc2cc(-n3ccc(OCCN4CCOCC4)n3)ccc2c1	> 1000 nM	33.3 nM	microsomal CLint at 10 µM [1]: 6 µL/min/mg; inhibition in vivo at 32 mg/kg (Mus musculus [9]): 55%; IC50 [4]: > 10000 nM
CC1CCN(CCOc2ccn(-c3ccc(Cl)c(Cl)c3)n2)CC1	32.8 nM	8.6 nM	
Cc1cc(OCCN2CCN(C)CC2)nn1-c1ccc(Cl)c(Cl)c1	> 1000 nM	11.1 nM	microsomal CLint at 10 µM [1]: 3 µL/min/mg; inhibition in vivo at 16 mg/kg (Mus musculus [5]): 27%; IC50 [4]: 7400 nM
CC(C)c1cc(OCCN2CCOCC2)nn1-c1ccc(Cl)c(Cl)c1	> 1000 nM	172 nM	
Cc1cc(OCCCCN2C[C@@H](C)O[C@@H](C)C2)nn1-c1ccc2ccccc2c1	226 nM	65 nM	
Cc1cc(OCCN2CCOCC2)nn1-c1ccc(Cl)cc1Cl	> 1000 nM	44 nM	microsomal CLint at 10 µM [1]: 25 µL/min/mg
Cc1cc(OCCN2CCOCC2)nn1-c1ccccc1	> 1000 nM	> 1000 nM	

Source: ChEMBL document CHEMBL2169838, “Synthesis and biological evaluation of the 1-arylpyrazole class of σ(1) receptor antagonists: identification of 4-{2-[5-methyl-1-(naphthalen-2-yl)-1H-pyrazol-3-yloxy]ethyl}morpholine (S1RA, E-52862)” (J Med Chem, 2012)
